From patent US8722626B2, “Method for controlling fibrosis and other pathological deposits in tissues comprising administering a GHRP-6 composition” (Centro de Ingenieria Genetica y Biotecnologia, priority 2006, dated 2014)
Square brackets hold non-standard residues; d marks the D form. Ends that are not written are not given here. Peptide text beside a SMILES is read from it. * marks the point of attachment. dTrp(2-Me) = Cc1[nH]c2ccccc2c1C[C@@H](N)C(=O)O; Octanoyl = CCCCCCCC(=O)*

Columns and labels:
[1] = tested on: transgenic mice over-expressing one mutated form of the NOTCH 3 gene; test: Dementia of vascular origin: transgenic mice over-expressing mutated NOTCH 3 gene (CADASIL model, Example 6); format: in vivo, mouse; set-up: SODt (oxidative stress marker) / Cabalase (oxidative stress marker) / HPT (oxidative stress marker) / MDA (oxidative stress marker): unit not given here; settings: 100 μg/kg i.p. twice a week, 16 weeks; for Cabalase (oxidative stress marker) / Cerebral Myo-inositol / HPT (oxidative stress marker) / MDA (oxidative stress marker) / SODt (oxidative stress marker): brain; for No. of blood vessels positive to Congo Red / No. of blood vessels positive to Nissl / No. of hemorrhagic foci. / No. of subcortical infarctions.: cerebral tissues
Experimental: This experiment was conducted to evaluate the efficacy of pharmaceutical compositions indistinctly containing one of the peptides GHRP-6, GHRP-2, hexarelin or ghrelin on the central neurofunctional involution process in transgenic mice over-expressing one mutated form of the NOTCH 3 gene in blood vessel smooth muscle cells. These animals develop in terms of months an arteriopathy similar to that of the CASADIL disease, referred to the descriptive memory, and is occurring as one of the main causes of vascular dementia. In these animals, vascular lesions also include retinal-cerebral, cerebral and cochlear vasculopathies. The beta-amiloid material present in the brain and blood vessels, the deposit of osmophilic granular material in brain and meningeal artery walls and their reduced lumen are histopathologically relevant. White-pale zones, microinfarction and hemorrhagic foci zones appear in the brain and its main nervous trunks.
Eighteen- to twenty-months-old male mice were employed when evidenced the symptoms of the disease. The animals were randomly assigned to the following experimental treatment groups: • A—Placebo group receiving the physiological saline solution. • B—Group receiving GHRP-6 at a 100 μg/kg dosage. • C—Group receiving GHRP-2 at a 100 μg/kg dosage. • D—Group receiving Ghrelin at a 100 μg/kg dosage. • E—Group receiving Hexarelin at a 100 μg/kg dosage.
Treatments were applied twice a week during 16 weeks by intraperitoneal route. When treatments concluded, autopsy studies were conducted irrespective of the clinical improvement evidenced in a great number of animals treated. Brain tissue samples including meningeal tissues were collected for biochemical and histopathological determinations. The animals received anesthesia overdosed and subjected to intra-cardiac perfusion with cold physiological saline solution to wash off the blood present in the encephala. The encephala were extracted and one encephalon was frozen in dry-ice and the other was fixed in 4% para-formaldehyde neutral. Samples were cryo-sliced at 10 μm and slices were stained with hematoxylin/eosin, Congo Red, or incubated with an antibody specific for the beta-amiloid protein. Morphometric procedures were carried out by microscopic imaging capture by a camera connected to the microscope, and the images were analyzed with the DIGIPAT software.
Number of fibrillar deposits of beta-amiloid in blood vessels.
Number of sub-cortical infarctions.
Number of sub-cortical hemorrhages.
Brain concentration of myo-inositol as indicator of aging and brain metabolism deterioration (μmol/g of tissue).
Brain oxidative stress markers.

[2] = tested on: human keloid fragments xeno-transplanted in athymic mice; test: Human keloid fragments xeno-transplanted into athymic mice (Example 7); format: in vivo, mouse; settings: for No. of fields positive to collagen-specific staining: Picrosirius red and trichromic Masson's staining, 4× and 10× averaged; for No. of fields positive to collagen-specific staining / No. of microscopic fields with mast cells (20X magnif.): infiltrated once every 24 hrs during 7 days; for No. of microscopic fields with mast cells (20X magnif.): aniline blue staining; for Hydroxiproline content in the tissue / Wet weight of the graft collected: infiltrated at the edges in the implants once every 24 hrs during 7 days, 5 micrograms to 1 milligram
Source text: To study the effect of peptides GHRP-6, GHRP-2, Hexarelin and/or Ghrelin in eradicating the pathological deposits of physiological material in the skin, human keloid fragments were xeno-transplanted into the dorsal region in athymic mice. After 72 hrs of evolution, to corroborate grafting and viability of xeno-transplants, the animals (N=6) were randomly distributed into the following experimental groups: • A—Saline control group (vehicle of the active principles). • B—Group receiving GHRP-6. • C—Group receiving GHRP-2. • D—Group receiving Ghrelin. • E—Group receiving Hexarelin. • Treatments were applied once every 24 hrs during 7 days. The substances were infiltrated at the edges in the implants, for local bioavailability of the active principles, at dosages from 5 micrograms to 1 milligram. After the treatment period, the animals were sacrificed and the implants extracted to evaluate the pharmacological response to every substance. Samples were weighed and fragmented for histological studies and biochemical determinations of collagen. The fragments for histological studies were fixed in 10% formalin neutral, and those fragments for biochemical analyses were stored at −70° C. • The parameters studied were: • a—Wet weight of the graft collected. • b—Hydroxiproline content in the tissue. • c—Number of microscopic fields with tissue positive to Picrosirius red staining and trichromic Masson's staining.

Compound: GHRP-2
- Cabalase (oxidative stress marker) [1]: 48.23 ± 14.25
- Cerebral Myo-inositol [1]: 14.65 ± 4.38 μmol/g of tissue
- HPT (oxidative stress marker) [1]: 117 ± 13.55
- MDA (oxidative stress marker) [1]: 0.302 ± 0.01
- SODt (oxidative stress marker) [1]: 11065.49 ± 46.29
- No. of blood vessels positive to Congo Red [1]: 18.26 ± 4.57
- No. of blood vessels positive to Nissl [1]: 13.8 ± 6.76
- No. of hemorrhagic foci. [1]: 11.79 ± 4.25
- No. of subcortical infarctions. [1]: 30.13 ± 5.72
- No. of fields positive to collagen-specific staining [2]: 18.12
- No. of microscopic fields with mast cells (20X magnif.) [2]: 11.17 ± 3.33
- Hydroxiproline content in the tissue [2]: 84.17 ± 7.75 µg/g
- Wet weight of the graft collected [2]: 7.14 ± 1.02 a grams

Compound: Cc1[nH]c2ccccc2c1C[C@@H](NC(=O)[C@@H](N)Cc1cnc[nH]1)C(=O)N[C@@H](C)C(=O)N[C@@H](Cc1c[nH]c2ccccc12)C(=O)N[C@H](Cc1ccccc1)C(=O)N[C@@H](CCCCN)C(N)=O [Hexarelin] (H-H[dTrp(2-Me)]AW[dF]K-NH2)
- Cabalase (oxidative stress marker) [1]: 51.19 ± 7.84
- Cerebral Myo-inositol [1]: 11.88 ± 2.71 μmol/g of tissue
- HPT (oxidative stress marker) [1]: 54.3 ± 11.87
- MDA (oxidative stress marker) [1]: 0.284 ± 0.01
- SODt (oxidative stress marker) [1]: 10814.68 ± 33.08
- No. of blood vessels positive to Congo Red [1]: 15.24 ± 1.24
- No. of blood vessels positive to Nissl [1]: 11.36 ± 6.4
- No. of hemorrhagic foci. [1]: 14.61 ± 3.31
- No. of subcortical infarctions. [1]: 27.11 ± 3.55
- No. of fields positive to collagen-specific staining [2]: 12.35
- No. of microscopic fields with mast cells (20X magnif.) [2]: 10.18 ± 2.98
- Hydroxiproline content in the tissue [2]: 88.59 ± 6.58 µg/g
- Wet weight of the graft collected [2]: 6.25 ± 1.73 a grams

Compound: Ghrelin: secretagogue peptide; active principle of the pharmaceutical composition (GSS(Octanoyl)FLSPEHQRVQQRKESKKPPAKLQPR; ends and bridges not checked; UniProt Q9UBU3 24-51, looked up)
- Cabalase (oxidative stress marker) [1]: 44.67 ± 11.58
- Cerebral Myo-inositol [1]: 14.04 ± 3.85 μmol/g of tissue
- HPT (oxidative stress marker) [1]: 142.16 ± 10.01
- MDA (oxidative stress marker) [1]: 0.261 ± 0.03
- SODt (oxidative stress marker) [1]: 12290.9 ± 60.32
- No. of blood vessels positive to Congo Red [1]: 17.67 ± 2.26
- No. of blood vessels positive to Nissl [1]: 11.27 ± 4.61
- No. of hemorrhagic foci. [1]: 13.06 ± 2.77
- No. of subcortical infarctions. [1]: 26.9 ± 4.27
- No. of fields positive to collagen-specific staining [2]: 11.27
- No. of microscopic fields with mast cells (20X magnif.) [2]: 10.71 ± 4.57
- Hydroxiproline content in the tissue [2]: 85.23 ± 4.11 µg/g
- Wet weight of the graft collected [2]: 6.67 ± 1.53 a grams
